# Biological target: Cezanne 1 (Homo sapiens (Human), UniProt Q6GQQ9)
# Test: Cezanne 1 biochemical IC50 assay (fluorescence polarisation, TAMRA labelled peptide linked to ubiquitin)
# Settings: Cezanne 1 biochemical IC50 assay; 30 min pre-incubation, read after 2 hr at room temperature; read-out: IC50 range
# Description: The Cezanne 1 construct was PCR amplified and cloned into a pFLAG-CMV-6c vector (Sigma-Aldrich) with an N-terminal FLAG tag. HEK293T cells were transfected with FLAG-Cezanne 1 using TransIT-LT1 transfection reagent (Mirus) according to the manufacturer's instructions. Cells were harvested 48 hours after transfection. […] The resin was washed two times with low salt buffer and one time with high salt buffer (20 mM Tris, pH 7.5, 500 mM NaCl, 0.5 mM EDTA, 5 mM beta-mercaptoethanol, protease inhibitors (complete mini, Roche) and phosphatase inhibitors (PhosSTOP mini, Roche). To elute the bound Cezanne 1, elution buffer (10 mM Tris, pH 7.5, 150 mM NaCl, 0.5 mM EDTA, 10% glycerol, 0.5% NP40, 5 mM beta-mercaptoethanol, 0.15 mg/ml 3× FLAG peptide (Sigma-Aldrich)) was added to the resin and incubated at 4° C. for 2.5 hours while rotating. The resin was centrifuged at 4000 rpm for 30 seconds, and the supernatant containing purified FLAG-Cezanne 1 was removed and stored at −80° C. […] Dilution plates were prepared at 21 times the final concentration (2100 μM for a final concentration of 100 μM) in 50% DMSO in a 96-well polypropylene V-bottom plate (Greiner #651201). […] Reactions were performed in duplicate in black 384 well plates (small volume, Greiner 784076) in a final reaction volume of 21 μl. Either 1 μl of 50% DMSO or diluted compound was added to the plate. Cezanne 1 was diluted in reaction buffer (40 mM Tris, pH 7.5, 0.005% Tween 20, 0.5 mg/ml BSA, 5 mM—beta-mercaptoethanol) to the equivalent of 0.005 μl/well and 10 μl of diluted Cezanne 1 was added to the compound. Enzyme and compound were incubated for 30 min at room temp. Reactions were initiated by the addition of 50 nM of TAMRA labelled peptide linked to ubiquitin via an iso-peptide bond as fluorescence polarisation substrate. Reactions were read immediately after addition of substrate and following a 2 hr incubation at room temperature. Readings were performed on a Pherastar Plus (BMG Labtech). λ Excitation 540 nm; λ Emission 590 nm.
# Chain of Cezanne 1 (Q6GQQ9 whole entry): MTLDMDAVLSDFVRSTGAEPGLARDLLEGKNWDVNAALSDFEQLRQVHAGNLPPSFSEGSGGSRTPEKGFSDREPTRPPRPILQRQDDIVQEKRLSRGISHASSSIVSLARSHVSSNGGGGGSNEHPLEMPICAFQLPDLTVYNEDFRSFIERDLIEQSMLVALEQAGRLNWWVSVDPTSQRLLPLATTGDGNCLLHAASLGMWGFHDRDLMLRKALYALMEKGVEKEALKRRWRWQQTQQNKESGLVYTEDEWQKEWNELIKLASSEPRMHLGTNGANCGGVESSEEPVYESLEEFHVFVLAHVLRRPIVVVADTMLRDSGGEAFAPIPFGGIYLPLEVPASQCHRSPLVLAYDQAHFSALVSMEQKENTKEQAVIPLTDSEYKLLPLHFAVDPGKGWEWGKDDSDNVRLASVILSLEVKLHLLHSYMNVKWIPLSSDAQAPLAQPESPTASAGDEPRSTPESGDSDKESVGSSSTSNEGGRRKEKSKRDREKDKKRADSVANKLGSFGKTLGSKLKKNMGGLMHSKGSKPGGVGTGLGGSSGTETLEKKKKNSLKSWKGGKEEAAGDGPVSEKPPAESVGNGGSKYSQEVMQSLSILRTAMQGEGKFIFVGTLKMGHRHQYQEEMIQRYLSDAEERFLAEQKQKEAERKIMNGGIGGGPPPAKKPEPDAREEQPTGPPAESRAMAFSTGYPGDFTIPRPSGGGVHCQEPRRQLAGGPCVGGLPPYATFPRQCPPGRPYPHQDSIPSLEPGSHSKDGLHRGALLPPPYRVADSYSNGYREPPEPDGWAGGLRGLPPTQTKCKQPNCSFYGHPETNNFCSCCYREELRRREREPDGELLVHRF
row,SMILES,IC50 [nM]
1,"N#CN1CCC2(CC(Cc3ccccc3)NC2=O)C1 (stereo not shown) [Example 81, 8-Benzyl-6-oxo-2,7-diazaspiro[4.4]nonane-2-carbonitrile]",1000 to 10000
2,"CC(=O)Nc1ccc(-c2ccc3c(c2)CC2(CCN(C#N)C2)C(=O)N3)cc1 (stereo not shown) [Example 113, N-(4-(1-Cyano-2′-oxo-1′,4′-dihydro-2′H-spiro[pyrrolidine-3,3′-quinolin]-6′-yl)phenyl)acetamide]",100 to 1000
3,"N#CN1CC[C@@]2(C1)Oc1ncc(-c3ccccc3)cc1NC2=O [Example 64, (S)-2-Oxo-7-phenyl-1,2-dihydrospiro[pyrido[2,3-b][1,4]oxazine-3,3′-pyrrolidine]-1′-carbonitrile]",100 to 1000
4,"C[C@@H]1NC(=O)C2(CCN(C#N)C2)NC1=O (stereo partly drawn) [Example 78, (8S)-8-Methyl-7,10-dioxo-2,6,9-triazaspiro[4.5]decane-2-carbonitrile]",1000 to 10000
5,"CNC(=O)c1ccc(-c2ccc3c(c2)CC2(CCN(C#N)C2)C(=O)N3)cn1 (stereo not shown) [Example 98, 5-(1-Cyano-2′-oxo-1′,4′-dihydro-2′H-spiro[pyrrolidine-3,3′-quinolin]-6′-yl)-N-methylpicolinamide]",100 to 1000
6,"N#CN1CCC2(C1)Nc1ncc(-c3cccc(F)c3)cc1NC2=O (stereo not shown) [Example 60, 7-(3-Fluorophenyl)-2-oxo-1,4-dihydro-2H-spiro[pyrido[2,3-b]pyrazine-3,3′-pyrrolidine]-1′-carbonitrile]",100 to 1000
7,"CN1CCN(c2ccc(-c3ccc4c(c3)CC3(CCN(C#N)C3)C(=O)N4)cc2)CC1 (stereo not shown) [Example 126, 6′-(4-(4-Methylpiperazin-1-yl)phenyl)-2′-oxo-1′,4′-dihydro-2′H-spiro[pyrrolidine-3,3′-quinoline]-1-carbonitrile]",100 to 1000
8,"N#CN1CCC2(CCNC2=O)C1 (stereo not shown) [Example 62, 6-Oxo-2,7-diazaspiro[4.4]nonane-2-carbonitrile]",> 10000
9,"Cn1nccc1-c1ccc2c(c1)CC1(CCN(C#N)C1)C(=O)N2 (stereo not shown) [Example 94, 6′-(1-Methyl-1H-pyrazol-5-yl)-2′-oxo-1′,4′-dihydro-2′H-spiro[pyrrolidine-3,3′-quinoline]-1-carbonitrile]",100 to 1000
10,"Cc1cnn(C)c1-c1cnc2c(c1)NC(=O)C1(CCN(C#N)C1)N2 (stereo not shown) [Example 146, 7-(1,4-Dimethyl-1H-pyrazol-5-yl)-2-oxo-1,4-dihydro-2H-spiro[pyrido[2,3-b]pyrazine-3,3′-pyrrolidine]-1′-carbonitrile]",100 to 1000
11,"CNC(=O)c1ccc(-c2ccc3c(c2)NC(=O)C2(CCN(C#N)C2)C3)cc1 (stereo not shown) [Example 17, 4-(1-Cyano-2′-oxo-1′,4′-dihydro-2′H-spiro[pyrrolidine-3,3′-quinolin]-7′-yl)-N-methylbenzamide]",1000 to 10000
12,"N#CN1CCC2(Cc3cc(-c4cccc(S(=O)(=O)N5CCOCC5)c4)ccc3NC2=O)C1 (stereo not shown) [Example 121, 6′-(3-(Morpholinosulfonyl)phenyl)-2′-oxo-1′,4′-dihydro-2′H-spiro[pyrrolidine-3,3′-quinoline]-1-carbonitrile]",100 to 1000
13,"CN(C)C(=O)c1cccc(-c2ccc3c(c2)CC2(CCN(C#N)C2)C(=O)N3)c1 (stereo not shown) [Example 130, 3-(1-Cyano-2′-oxo-1′,4′-dihydro-2′H-spiro[pyrrolidine-3,3′-quinolin]-6′-yl)-N,N-dimethylbenzamide]",100 to 1000
14,"CC1CC2(CCN(C#N)C2)C(=O)N1 (single isomer, unassigned) [Example 83, 8-Methyl-6-oxo-2,7-diazaspiro[4.4]nonane-2-carbonitrile]",> 10000
15,"CNC(=O)c1ccc(-c2ccc3c(c2)CC2(CCN(C#N)C2)C(=O)N3)cc1 (stereo not shown) [Example 100, 4-(1-Cyano-2′-oxo-1′,4′-dihydro-2′H-spiro[pyrrolidine-3,3′-quinolin]-6′-yl)-N-methylbenzamide]",100 to 1000
16,"N#CN1CCC2(C1)NC(=O)CNC2=O (stereo not shown) [Example 77, 7,10-Dioxo-2,6,9-triazaspiro[4.5]decane-2-carbonitrile]",1000 to 10000
17,"N#CN1CCC2(Cc3ccc(-c4cccc(NS(=O)(=O)C5CC5)c4)cc3NC2=O)C1 (stereo not shown) [Example 26, N-(3-(1-Cyano-2′-oxo-1′,4′-dihydro-2′H-spiro[pyrrolidine-3,3′-quinolin]-7′-yl)phenyl)cyclopropanesulfonamide]",100 to 1000
18,"COCCn1ncc2c(-c3cnc4c(c3)NC(=O)C3(CCN(C#N)C3)O4)cccc21 (stereo not shown) [Example 140, 7-(1-(2-Methoxyethyl)-1H-indazol-4-yl)-2-oxo-1,2-dihydrospiro[pyrido[2,3-b][1,4]oxazine-3,3′-pyrrolidine]-1′-carbonitrile]",100 to 1000
19,"N#CN1CCC2(C1)OCc1ccccc1NC2=O (stereo not shown) [Example 85, 2-Oxo-1,5-dihydro-2H-spiro[benzo[e][1,4]oxazepine-3,3′-pyrrolidine]-1′-carbonitrile]",1000 to 10000

# Continued, values first:
row,IC50 [nM],SMILES
1,1000 to 10000,"N#CN1CCC2(C1)Oc1nc(C(=O)N3CCCCC3)ccc1NC2=O (stereo not shown) [Example 142, 2-Oxo-6-(piperidine-1-carbonyl)-1,2-dihydrospiro[pyrido[2,3-b][1,4]oxazine-3,3′-pyrrolidine]-1′-carbonitrile]"
2,1000 to 10000,"COc1ccc(C(C)C)cc1-c1ccc2c(c1)NC(=O)C1(CCN(C#N)C1)C2 (stereo not shown) [Example 5, 7′-(5-Isopropyl-2-methoxyphenyl)-2′-oxo-1′,4′-dihydro-2′H-spiro[pyrrolidine-3,3′-quinoline]-1-carbonitrile]"
3,100 to 1000,"N#Cc1cccc(-c2cnc3c(c2)NC(=O)[C@@]2(CCN(C#N)C2)O3)c1 [Example 71, (S)-7-(3-Cyanophenyl)-2-oxo-1,2-dihydrospiro[pyrido[2,3-b][1,4]oxazine-3,3′-pyrrolidine]-1′-carbonitrile]"
4,1000 to 10000,"CNC(=O)c1ccc(-c2ccc3c(c2)NC(=O)C2(CCN(C#N)C2)C3)cn1 (stereo not shown) [Example 15, 5-(1-Cyano-2′-oxo-1′,4′-dihydro-2′H-spiro[pyrrolidine-3,3′-quinolin]-7′-yl)-N-methylpicolinamide]"
5,100 to 1000,"CN1CCN(C(=O)c2ccc(-c3ccc4c(c3)NC(=O)C3(CCN(C#N)C3)C4)cc2)CC1 (stereo not shown) [Example 23, 7′-(4-(4-Methylpiperazine-1-carbonyl)phenyl)-2′-oxo-1′,4′-dihydro-2′H-spiro[pyrrolidine-3,3′-quinoline]-1-carbonitrile]"
6,100 to 1000,"Cc1ccc2[nH]ncc2c1-c1ccc2c(c1)NC(=O)C1(CCN(C#N)C1)C2 (stereo not shown) [Example 25, 7′-(5-Methyl-1H-indazol-4-yl)-2′-oxo-1′,4′-dihydro-2′H-spiro[pyrrolidine-3,3′-quinoline]-1-carbonitrile]"
7,1000 to 10000,"N#Cc1ccc(-c2ccc3c(c2)NC(=O)C2(CCN(C#N)C2)C3)cc1 (stereo not shown) [Example 13, 7′-(4-Cyanophenyl)-2′-oxo-1′,4′-dihydro-2′H-spiro[pyrrolidine-3,3′-quinoline]-1-carbonitrile]"
8,< 100,"Cn1ncc2c(-c3cnc4c(c3)NC(=O)C3(CCN(C#N)C3)O4)cccc21 (stereo not shown) [Example 136, 7-(1-Methyl-1H-indazol-4-yl)-2-oxo-1,2-dihydrospiro[pyrido[2,3-b][1,4]oxazine-3,3′-pyrrolidine]-1′-carbonitrile]"
9,100 to 1000,"N#CN1CCC2(C1)Oc1ncc(-c3ccc(F)cc3)cc1NC2=O (stereo not shown) [Example 52, 7-(4-Fluorophenyl)-2-oxo-1,2-dihydrospiro[pyrido[2,3-b][1,4]oxazine-3,3′-pyrrolidine]-1′-carbonitrile]"
10,1000 to 10000,"C[C@H]1NC(=O)C2(CCN(C#N)C2)NC1=O (stereo partly drawn) [Example 76, (8R)-8-Methyl-7,10-dioxo-2,6,9-triazaspiro[4.5]decane-2-carbonitrile]"
11,100 to 1000,"Cc1cc(-c2ccc3c(c2)CC2(CCN(C#N)C2)C(=O)N3)ccn1 (stereo not shown) [Example 131, 6′-(2-Methylpyridin-4-yl)-2′-oxo-1′,4′-dihydro-2′H-spiro[pyrrolidine-3,3′-quinoline]-1-carbonitrile]"
12,100 to 1000,"N#CN1CCC2(Cc3cc(-c4cccc(F)c4)ccc3NC2=O)C1 (stereo not shown) [Example 45, 6′-(3-Fluorophenyl)-2′-oxo-1′,4′-dihydro-2′H-spiro[pyrrolidine-3,3′-quinoline]-1-carbonitrile]"
13,100 to 1000,"N#CN1CC[C@@]2(C1)Nc1ncc(-c3ccccc3)cc1NC2=O [Example 68, (S)-2-Oxo-7-phenyl-1,4-dihydro-2H-spiro[pyrido[2,3-b]pyrazine-3,3′-pyrrolidine]-1′-carbonitrile]"
14,1000 to 10000,"CN1CCN(C(=O)c2ccc(-c3ccc4c(c3)CC3(CCN(C#N)C3)C(=O)N4)cc2)CC1 (stereo not shown) [Example 106, 6′-(4-(4-Methylpiperazine-1-carbonyl)phenyl)-2′-oxo-1′,4′-dihydro-2′H-spiro[pyrrolidine-3,3′-quinoline]-1-carbonitrile]"
15,100 to 1000,"N#CN1CC[C@@]2(C1)Nc1ncc(-c3cccc(F)c3)cc1NC2=O [Example 73, (S)-7-(3-Fluorophenyl)-2-oxo-1,4-dihydro-2H-spiro[pyrido[2,3-b]pyrazine-3,3′-pyrrolidine]-1′-carbonitrile]"

# From patent publication US10654853B2, “Spiro-condensed pyrrolidine derivatives as deubiquitylating enzymes (DUB) inhibitors” (MISSION THERAPEUTICS LIMITED, priority 2016, dated 2020)
